Results as given in patent US20230317203A1, “SCREENING METHOD” (University of Leeds, priority 2022, published 2023).

Assays:
BRISC(FL) = target: T1, BRISC(FL) (Homo sapiens, UniProt P46736+Q15018+Q9NXR7); assay: Native mass spectrometry of BRISC with inhibitor; assay type: binding; settings: 10 μM BRISC(FL), 1 mM inhibitor
T1 construct: The four-subunit human BRISC (full-length (FL) and MERIT40ΔN, Abraxas2ΔC) complex was cloned; made in house; host or cells: Spodoptera frugiperda (Sf9) insect cells
Method: Samples were buffer exchanged into 500 mM ammonium acetate using Zeba Spin 7K MWCO desalting columns (ThermoFisher). Gold and palladium coated nanospray tips were prepared in-house and mounted on the nano-electrospray ionisation source. Mass spectra were acquired on a Q Exactive Ultra-High Mass Range Hybrid Quadrupole-Orbitrap mass spectrometer (Thermo Fisher), optimised for mass resolution at high m/z ratios. Data were visualised and processed using Mass Lynx (v4.1) and UniDec (v2.7.1).

BRISC Abraxas2 Ile133Trp = BRISC Abraxas2 Ile133Trp (Homo sapiens, UniProt P46736+Q15018+Q9NXR7, I133W); assay: IQF DUB assay, BRISC mutant Abraxas2 Ile133Trp; assay type: biochemical; settings: FIG. 4B
Method: (§1) The four-subunit human BRISC (full-length (FL) and MERIT40ΔN, Abraxas2ΔC) complex was cloned using the MultiBac system and co-expressed in Spodoptera frugiperda (Sf9) insect cells^32. BRISC mutants were cloned into pFastBac vectors in the Bac-to-Bac system (ThermoFisher), baculoviruses generated in Sf9 cells and used for co-infection of Trichoplusia ni (Tni) cells. All BRISC complexes were purified as previously described^12,13.
(§2) BRISC complexes were tested for activity in DUB reaction buffer containing 50 mM HEPES-NaOH pH 7.0, 100 mM NaCl, 0.1 mg/mL BSA, 1 mM DTT, and 0.003% Brij-35. […] Inhibitors were assayed at concentrations up to 200 μM. […] DUB activity was measured using internally quenched fluorescent (IQF) K63-linked diUb (Lifesensors, catalogue number: DU6303) at 50 or 100 nM. Cleaved diUb was monitored by measuring fluorescence intensity (Ex. 540 nm, Em. 580 nm; dichroic mirror 560 nm). Fluorescence intensity was measured every minute for 30 minutes at 30° C. Fluorescence intensity units for the first 10 minutes were plotted against time to generate a linear reaction progress curve, where the initial velocity (v0) corresponds to the gradient of the curve. IC50 values were calculated using the GraphPad Prism (v8.0) built-in dose-response equation for inhibitor concentration vs. response (variable slope). […]

BRISC BRCC36 Trp130Ala = BRISC BRCC36 Trp130Ala (Homo sapiens, UniProt P46736+Q15018+Q9NXR7, W130A); assay: IQF DUB assay, BRISC mutant BRCC36 Trp130Ala; assay type: biochemical; settings: FIG. 4B
Method: as §1, §2

BRISC BRCC36 Ile158Lys = BRISC BRCC36 Ile158Lys (Homo sapiens, UniProt P46736+Q15018+Q9NXR7, I158K); assay: Mass photometry, BRISC mutant BRCC36 Ile158Lys; assay type: binding; settings: BRCC36 Ile158Lys (inactive mutant)
Method: (§3) Microscope coverslips were prepared as previously described^33. All mass photometry experiments were performed using a One^MP mass photometer (Refeyn Ltd, Oxford, UK). For preliminary BRISC-inhibitor measurements, 1 μM BRISC(FL) was mixed with either DMSO or inhibitor at 330 μM and incubated for 15 minutes on ice. Prior to MP measurement, the BRISC-inhibitor mix was diluted in gel filtration buffer (25 mM HEPES, 150 mM NaCl, 1 mM TCEP) for a final concentration of BRISC at 10 nM (0.05% DMSO). 12 μL of this dilution was used for the final MP measurement, following autofocus stabilisation. […] Movies were recorded for 60 seconds using AcquireMP (Refeyn, UK), and were processed using DiscoverMP (Refeyn, UK). […] The relative amount of each species is calculated as the area of each Gaussian, where a refers to the standard deviation of the fitted Gaussian. […] Curves were fitted and EC50 values were calculated using the GraphPad Prism (v8.0) built-in dose-response equation for concentration of agonist vs. response (variable slope).
(§4) The cryo-EM structures of BRISC bound to molecular glues allowed picking of selective mutations to probe the BRISC-compound interaction site and to assess the contribution of each interacting residue for inhibition and gluing activity. […] For the remaining active 13 mutants (FIGS. 11C, 11D) inhibitor IC50s were calculated against BRISC DUB activity. […]

BRISC BRCC36 Thr128Pro = BRISC BRCC36 Thr128Pro (Homo sapiens, UniProt P46736+Q15018+Q9NXR7, T128P); assay: Mass photometry, BRISC mutant BRCC36 Thr128Pro; assay type: binding; settings: BRCC36 Thr128Pro (inactive mutant)
Method: as §3, §4

inhibitor sensitivity of mutant (BRISC Abraxas2 Ile133Trp): no effect on inhibitor sensitivity
inhibitor sensitivity of mutant (BRISC BRCC36 Trp130Ala): severely affected
inhibitor-induced dimerisation (BRISC BRCC36 Thr128Pro): still formed a dimer
Compound: O=C(NC1C2CNCC21)c1nn(C(=O)c2c(Cl)cccc2Cl)cc1NC(=O)c1c(Cl)cccc1Cl (centres unmarked) [FX-171-C]
BRISC species by native mass spectrometry (BRISC(FL)): BRISC dimers with a MW consistent with a 4:4:4:4 stoichiometry were observed
inhibitor-induced dimerisation (BRISC BRCC36 Ile158Lys): reduction in the inhibitor-induced dimerisation effect
